Measured values from ChEMBL document CHEMBL4613326 (J Med Chem, 2020).
The source made the active and inactive calls. The calls are words filed in the database; no cut-off is given here.

Legend:
Autotaxin [1] = target: T1, Autotaxin (Homo sapiens, UniProt Q13822); test: Inhibition of human ATX pre-incubated for 45 mins before fluorogenic substrate-3 addition and measured every minute for 30 mins by fluorescence based assay
Mus musculus [2] = test: Protection against lung fibrosis in C57BL/6 mouse model of bleomycin sulfate-induced idiopathic pulmonary fibrosis assessed as induction of improvement in lung texture at 20 mg/kg, po dosed once daily for 31 days followed by bleomycin sulfate challenge on day 3 by hematoxylin and eosin staining based assay; type: functional, organism-based
Mus musculus [3] = test: Protection against lung fibrosis in C57BL/6 mouse model of bleomycin sulfate-induced idiopathic pulmonary fibrosis assessed as induction of body weight recovery at 20 mg/kg, po dosed once daily for 31 days followed by bleomycin sulfate challenge on day 3; type: functional, organism-based
Mus musculus [4] = test: Protection against lung fibrosis in C57BL/6 mouse model of bleomycin sulfate-induced idiopathic pulmonary fibrosis assessed as induction of improvement in histopathological changes by measuring modified Ashcroft score level at 60 mg/kg, po dosed once daily for 31 days followed by bleomycin sulfate challenge on day 3 by hematoxylin and eosin staining based assay (reference value: 6.28); type: functional
Mus musculus [5] = test: Protection against lung fibrosis in C57BL/6 mouse model of bleomycin sulfate-induced idiopathic pulmonary fibrosis assessed as induction of body weight recovery at 60 mg/kg, po dosed once daily for 31 days followed by bleomycin sulfate challenge on day 3; type: functional, organism-based
Mus musculus [6] = test: Ex-vivo inhibition of ATX lysoPLD activity in lung homogenate isolated from C57BL/6 mouse model of bleomycin sulfate-induced idiopathic pulmonary fibrosis assessed […] for artificial substrate FS-3 cleavage at 20 mg/kg, po dosed once daily for 31 days followed by bleomycin sulfate challenge on day 3 by fluorescence based assay; type: functional
Mus musculus [7] = test: Protection against lung fibrosis in C57BL/6 mouse model of bleomycin sulfate-induced idiopathic pulmonary fibrosis assessed as induction of improvement in lung texture at 20 to 60 mg/kg, po dosed once daily for 31 days followed by bleomycin sulfate challenge on day 3 by hematoxylin and eosin staining based assay; type: functional, organism-based
Mus musculus [8] = test: Ex-vivo inhibition of ATX lysoPLD activity in lung homogenate isolated from C57BL/6 mouse model of bleomycin sulfate-induced idiopathic pulmonary fibrosis assessed absorbance for artificial substrate FS-3 cleavage at 20 to 60 mg/kg, po dosed once daily for 31 days followed by bleomycin sulfate challenge on day 3 by fluorescence based assay; type: functional, organism-based
Mus musculus [9] = test: Ex-vivo inhibition of ATX lysoPLD activity in lung homogenate isolated from C57BL/6 mouse model of bleomycin sulfate-induced idiopathic pulmonary fibrosis assessed absorbance for artificial substrate FS-3 cleavage at 60 mg/kg, po dosed once daily for 31 days followed by bleomycin sulfate challenge on day 3 by fluorescence based assay; type: functional
Mus musculus [10] = test: Protection against lung fibrosis in C57BL/6 mouse model of bleomycin sulfate-induced idiopathic pulmonary fibrosis assessed as induction of improvement in histopathological changes by measuring modified Ashcroft score level at 20 mg/kg, po dosed once daily for 31 days followed by bleomycin sulfate challenge on day 3 by hematoxylin and eosin staining based assay (reference value: 6.28); type: functional
Mus musculus [11] = test: Protection against lung fibrosis in C57BL/6 mouse model of bleomycin sulfate-induced idiopathic pulmonary fibrosis assessed as induction of improvement in lung texture by measuring modified Ashcroft score level at 60 mg/kg, po dosed once daily for 31 days followed by bleomycin sulfate challenge on day 3 by Masson staining based assay; type: functional
Mus musculus [12] = test: Protection against lung fibrosis in C57BL/6 mouse model of bleomycin sulfate-induced idiopathic pulmonary fibrosis assessed as induction of improvement in lung texture at 60 mg/kg, po dosed once daily for 31 days followed by bleomycin sulfate challenge on day 3 by hematoxylin and eosin staining based assay; type: functional, organism-based
Autotaxin [13] = target: T1, Autotaxin
Description: Inhibition of human ATX by LPC choline release assay

Compound | IC50 (Autotaxin [1]) | other results
CCn1cc(NC(=O)OCc2ccc3c(c2)OCO3)c2cc(-c3nc(CN4CCC(O)CC4)cs3)ccc21 | 34.1 nM | –
CCn1cc(C(=O)N/N=C/c2ccc(OC)cc2)c2cc(-c3nc(CN4CCOCC4)cs3)ccc21 | > 10000 nM | –
CN(C)Cc1csc(-c2ccc3[nH]cc(C(=O)O)c3c2)n1 | 740 nM | –
CCn1cc(NC(=O)O[C@H](C)c2ccccc2Cl)c2cc(-c3nc(CN4CCC(O)CC4)cs3)ccc21 | 210 nM | –
CCn1cc(C(=O)N/N=C/c2ccc(F)cc2)c2cc(-c3nc(CN4CCC(C)CC4)cs3)ccc21 | > 10000 nM | –
CCn1cc(C(=O)N/N=C/c2ccc3c(c2)OCO3)c2cc(-c3nc(CN4CCN(C)CC4)cs3)ccc21 | 757 nM | –
CCn1cc(C(=O)N/N=C/c2ccc3c(c2)OCO3)c2cc(-c3nc(CN4CCC(O)CC4)cs3)ccc21 | 107 nM | –
CCn1cc(NC(=O)OCc2cc(Cl)cc(Cl)c2)c2cc(-c3nc(CN4CCC(O)CC4)cs3)ccc21 | 613 nM | –
CCn1cc(C(=O)N/N=C(\C)c2ccc(F)cc2)c2cc(-c3nc(CN4CCC[C@H]4CO)cs3)ccc21 | 15.7 nM | –
CCn1cc(NC(=O)OCc2cccc(Cl)c2Cl)c2cc(-c3nc(CN4CCN(CCO)CC4)cs3)ccc21 | 62.7 nM | –
CCn1cc(NC(=O)O[C@H](C)c2ccc(C)cc2)c2cc(-c3nc(CN4CCC(O)CC4)cs3)ccc21 | 117 nM | –
CCn1cc(NC(=O)O[C@H](C)c2ccc(C)cc2)c2cc(-c3nc(CN4CCC[C@H]4CO)cs3)ccc21 | 36.9 nM | –
CCn1cc(C(=O)N/N=C/c2ccc(Cl)cc2)c2cc(-c3nc(CN4CCC(O)CC4)cs3)ccc21 | 180 nM | –
CCn1cc(NC(=O)OCc2ccc(F)c(F)c2)c2cc(-c3nc(CN4CCC(O)CC4)cs3)ccc21 | 1.01 nM | Activity (Mus musculus [2]): Active; Activity (Mus musculus [3]): Active; Activity_index (Mus musculus [4]): 3.2; Activity (Mus musculus [5]): Active; Activity (Mus musculus [6]): 3.85 a.u.; Activity (Mus musculus [7]): Dose-dependent effect; inhibition (Mus musculus [8]): Dose-dependent effect; Activity (Mus musculus [9]): 3.37 a.u.; Activity_index (Mus musculus [10]): 4.66
CCn1cc(NC(=O)OCc2ccccc2)c2cc(-c3nc(CN4CCC(O)CC4)cs3)ccc21 | 970 nM | –
CCn1cc(C(=O)N/N=C/c2ccc(F)cc2)c2cc(-c3nc(CN4CCC[C@H]4CO)cs3)ccc21 | 655 nM | –
CCn1cc(C(=O)N/N=C/c2ccc(OC)cc2)c2cc(-c3nc(CN4CCCCC4)cs3)ccc21 | 1460 nM | –
CCn1cc(C(=O)N/N=C/c2ccc(F)cc2)c2cc(-c3nc(CN4CCC(O)CC4)cs3)ccc21 | 906 nM | –
CCn1cc(NC(=O)O[C@H](C)c2ccccc2Cl)c2cc(-c3nc(CN4CCC[C@H]4CO)cs3)ccc21 | 199 nM | –
Cn1cc(C(=O)N/N=C/c2ccc(F)cc2)c2cc(-c3nc(CN4CCOCC4)cs3)ccc21 | 2870 nM | –
CCn1cc(NC(=O)OCc2ccccc2)c2cc(-c3nc(CN4CCC[C@H]4CO)cs3)ccc21 | 122 nM | –
CCn1cc(C(=O)N/N=C(\C)c2ccc(F)cc2)c2cc(-c3nc(CN4CCN(C)CC4)cs3)ccc21 | 2530 nM | –
CCN1CCN(Cc2csc(-c3ccc4c(c3)c(C(=O)N/N=C/c3ccc(F)cc3)cn4CC)n2)CC1 | 1350 nM | –
Cn1cc(C(=O)N/N=C/c2ccc(Cl)cc2)c2cc(-c3nc(CN4CCOCC4)cs3)ccc21 | > 10000 nM | –
CCn1cc(NC(=O)OCc2ccc(F)c(F)c2)c2cc(-c3nc(CN4CCC[C@H]4CO)cs3)ccc21 | 297 nM | –
CCN1CCN(Cc2csc(-c3ccc4c(c3)c(C(=O)N/N=C(\C)c3ccc(F)cc3)cn4CC)n2)CC1 | 1590 nM | –

Compound | IC50 (Autotaxin [1]) | other results
CCn1cc(C(=O)N/N=C/c2ccc(Cl)cc2)c2cc(-c3nc(CN4CCN(CCO)CC4)cs3)ccc21 | 231 nM | –
CN1CCN(Cc2csc(-c3ccc4c(c3)c(C(=O)N/N=C/c3ccc(F)cc3)cn4C)n2)CC1 | 5240 nM | –
CCn1cc(NC(=O)OCc2ccc3c(c2)OCO3)c2cc(-c3nc(CN4CCC[C@H]4CO)cs3)ccc21 | 34.7 nM | –
CCn1cc(NC(=O)OCc2cc(Cl)cc(Cl)c2)c2cc(-c3nc(CN4CCN(CCO)CC4)cs3)ccc21 | 0.43 nM | Activity (Mus musculus [2]): Active; Activity (Mus musculus [3]): Active; Activity_index (Mus musculus [4]): 2.04; Activity (Mus musculus [5]): Active; Activity (Mus musculus [6]): 3.43 a.u.; Activity_index (Mus musculus [11]): 2.01; inhibition (Mus musculus [8]): Dose-dependent effect; Activity (Mus musculus [9]): 3.25 a.u.
CCn1cc(C(=O)N/N=C/c2ccc(F)cc2)c2cc(-c3nc(CN4CCN(CCO)CC4)cs3)ccc21 | 135 nM | –
CCn1cc(C(=O)N/N=C/c2ccc(F)cc2)c2cc(-c3nc(CN4CCOCC4)cs3)ccc21 | 1370 nM | –
CCn1cc(C(=O)N/N=C/c2ccc3c(c2)OCO3)c2cc(-c3nc(CN4CCCCC4)cs3)ccc21 | 1550 nM | –
CCn1cc(C(=O)N/N=C(\C)c2ccc(F)cc2)c2cc(-c3nc(CN4CCN(CCO)CC4)cs3)ccc21 | 508 nM | –
Cn1cc(C(=O)N/N=C/c2ccc3c(c2)OCO3)c2cc(-c3nc(CN4CCOCC4)cs3)ccc21 | > 10000 nM | –
CCn1cc(C(=O)N/N=C(\C)c2ccc(F)cc2)c2cc(-c3nc(CN4CCOCC4)cs3)ccc21 | 1840 nM | –
C/C(=N\NC(=O)c1cn(C)c2ccc(-c3nc(CN4CCN(C)CC4)cs3)cc12)c1ccc(F)cc1 | > 10000 nM | –
CCn1cc(C(=O)N/N=C/c2ccc3c(c2)OCO3)c2cc(-c3nc(CN4CCC[C@H]4CO)cs3)ccc21 | 610 nM | –
CCn1cc(C(=O)N/N=C(\C)c2ccc(F)cc2)c2cc(-c3nc(CN4CCC(O)CC4)cs3)ccc21 | 69.4 nM | –
CCn1cc(C(=O)N/N=C/c2ccc3c(c2)OCO3)c2cc(-c3nc(CN4CCC(C)CC4)cs3)ccc21 | > 10000 nM | –
CCn1cc(NC(=O)OCc2cccc(Cl)c2Cl)c2cc(-c3nc(CN4CCC(O)CC4)cs3)ccc21 | 127 nM | –
CN1CCN(Cc2csc(-c3ccc4c(c3)c(C(=O)N/N=C/c3ccc5c(c3)OCO5)cn4C)n2)CC1 | 879 nM | –
CCn1cc(C(=O)N/N=C/c2ccc(F)cc2)c2cc(-c3nc(CN4CCCCC4)cs3)ccc21 | 3960 nM | –
CCn1cc(C(=O)N/N=C/c2ccc3c(c2)OCO3)c2cc(-c3nc(CN4CCOCC4)cs3)ccc21 | > 10000 nM | –
CCn1cc(NC(=O)OCc2cc(Cl)cc(Cl)c2)c2cc(-c3nc(CN(CCO)CCO)cs3)ccc21 | 21.3 nM | –
CCc1nc2c(C)cc(N3CCN(CC(=O)N4CC(O)C4)CC3)cn2c1N(C)c1nc(-c2ccc(F)cc2)c(C#N)s1 [ZIRITAXESTAT] | – | Activity (Mus musculus [12]): Active; Activity (Mus musculus [5]): Active; Activity (Mus musculus [9]): 4.03 a.u.
CCN1CCN(Cc2csc(-c3ccc4c(c3)c(C(=O)N/N=C/c3ccc(Cl)cc3)cn4CC)n2)CC1 | 2310 nM | –
CCCC[C@@H](CCCC(=O)NO)NC(=O)CCCCC(=O)Nc1ccccc1 | – | IC50 (Autotaxin [13]): 60 nM
CCn1cc(NC(=O)OCc2ccc3c(c2)OCO3)c2cc(-c3nc(CN(CCO)CCO)cs3)ccc21 | 30.7 nM | –
CCn1cc(C(=O)N/N=C/c2ccc(Cl)cc2)c2cc(-c3nc(CN4CCCC4)cs3)ccc21 | 1170 nM | –
CCn1cc(C(=O)N/N=C(\C)c2ccc(F)cc2)c2cc(-c3nc(CN4CCCC4)cs3)ccc21 | 2740 nM | –
CCn1cc(C(=O)N/N=C/c2ccc3c(c2)OCO3)c2cc(-c3nc(CN4CCN(CCO)CC4)cs3)ccc21 | 1320 nM | –
